{"source": "patent US12396995B2", "about": "“Substituted 4-aminoisoindoline-1,3-dione compounds and second active agents for combined use” (Celgene Corporation, priority 2019, dated 2025)", "tested_on": "DB DLBCL xenograft tumors", "experiment": "DB (DLBCL) xenograft model, Compound 1 alone and with tazemetostat", "type": "in vivo, female SCID mice", "settings": "for tumor volume reduction: 5 D on/2 D off", "protocol": "Anti-tumor activity of Compound 1 alone and in combination with tazemetostat was studied in DB (DLBCL) xenograft model. Compound 1 (3, 10 or 30 mg/kg) was administered once daily for 5 consecutive days followed by 2 days off (5 D on/2 D off) and tazemetostat (200 mg/kg) was administered twice daily (BID).\nMethods: Xenograft study was conducted with female SCID mice bearing DB DLBCL xenograft tumors. Female SCID mice were inoculated subcutaneously with DB cells in the flank region above the right hind leg. Following inoculation of animals, the tumors were allowed to grow to approximately 200 mm^3 prior to randomization. On day 33 following tumor cell inoculation, the mice bearing DB tumors ranging between 150 and 250 mm^3 were pooled together and randomized into various treatment groups. Compound 1 was formulated in 0.5% Methyl Cellulose, 0.25% Tween 80 and 50 mM Citrate pH 3 in water. Tazemetostat was formulated in CMC-Tween. Compound 1 (3, 10 or 30 mg/kg) was orally administered with three cycles of once daily for 5 consecutive days followed by 2 days off starting from day 33 after tumor cell inoculation. Tazemetostat (200 mg/kg) was orally administered twice day (BID) for three weeks. In combination group the animals received Compound 1 (3, 10 or 30 mg/kg, 5 D on/2 D off) and tazemetostat (200 mg/kg, BID) simultaneously for three weeks starting from day 33 after tumor cell inoculation. Tumors were measured twice a week using calipers and tumor volumes were calculated using the formula of W^2×L/2. Statistical analysis was performed using a one-way or 2-way analysis of variance (ANOVA). Synergy calculations were performed using fractional product method."}
{"molecule": "O=C1CC[C@H](N2C(=O)c3cccc(NCc4ccc(CN5CC(N6CCOCC6)C5)cc4F)c3C2=O)C(=O)N1", "note": "[Compound 1, (S)-2-(2,6-dioxopiperidin-3-yl)-4-((2-fluoro-4-((3-morpholinoazetidin-1-yl)methyl)benzyl)amino)isoindoline-1,3-dione]", "values": [{"measurement": "tumor volume reduction compared with vehicle control", "setting": "Compound 1 3 mg/kg in combination with tazemetostat 200 mg/kg", "result": 99.1, "unit": "%"}, {"measurement": "tumor volume reduction compared with vehicle control", "setting": "Compound 1 10 mg/kg in combination with tazemetostat 200 mg/kg", "result": 100, "unit": "%"}, {"measurement": "tumor volume reduction compared with vehicle control", "setting": "Compound 1 30 mg/kg in combination with tazemetostat 200 mg/kg", "result": 100, "unit": "%"}, {"measurement": "combination antitumor activity (fractional product method)", "setting": "Compound 1 at 3, 10 or 30 mg/kg and tazemetostat at 200 mg/kg", "result": "synergistic"}, {"measurement": "tumor volume reduction", "setting": "single agent Compound 1 3 mg/kg oral", "result": 16.9, "unit": "%"}, {"measurement": "tumor volume reduction", "setting": "single agent Compound 1 10 mg/kg oral", "result": 41.11, "unit": "%"}, {"measurement": "tumor volume reduction", "setting": "single agent Compound 1 30 mg/kg oral", "result": 48.9, "unit": "%"}, {"measurement": "animals tumor free", "setting": "tazemetostat in combination with 3 mg/kg Compound 1", "result": 90, "unit": "%"}, {"measurement": "animals tumor free", "setting": "tazemetostat in combination with 10 mg/kg Compound 1", "result": 100, "unit": "%"}, {"measurement": "animals tumor free", "setting": "tazemetostat in combination with 30 mg/kg Compound 1", "result": 100, "unit": "%"}]}
